Laboratory results reported in patent US12220399B2, “Pharmaceutical compositions comprising one or more pyrone compounds, and their use for treating inflammatory and neurodegenerative diseases” (NeuroTheryX Canada LTD, priority 2015, dated 2025).

Key:
MO3-13 cells [1] = assay: Protection of MO3-13 oligodendrocytes from Cpz toxicity; assay type: cell-based, human; settings: compound at 5 μM, Cpz at 50 μM, 24 hrs, visual assessment, FIG. 2
Experimental: The protective effects of compounds […] on MO3-13 cells from Cpz toxicity were then determined. […] Cpz at a final concentration of 50 μM was solubilized in 100% ethanol was added to selected dishes with compound A1 or A2 at 5 μM in DMSO, or DMSO alone as a control.

[2] = test system: myelin basic protein (MBP); assay: Induction of myelin basic protein (MBP) production, anti-MBP slot blot of MO3-13 whole cell extracts; assay type: cell-based, human; settings: FIG. 3
Experimental: Dilutions (0.1 mg/mL) of MO3-13 whole cell extracts were prepared and the proteins (5 μg) from the dilutions were blotted onto nitrocellulose membrane using a slot blotter. The non-protein sites on the blot were blocked with 2% ECL block in PBS-Tween20. Primary anti-Bov MBP was diluted in block solution at 300×. The primary antibody was incubated overnight at 4° C. with gentle shaking. The following day the blot was developed using enhanced ECL (GE Healthcare) method. Image of bound antibody were captured using Image Lab software driving a Bio-Rad ChemiDoc XRS+ image capture system.

MO3-13 cells [3] = settings: differentiated (serum deprived 48 hrs) MO3-13 cells, increasing amounts of Cpz, 24 hrs, visual assessment by phase contrast, FIG. 1
Experimental: MO3-13 cells were plated onto 10 cm cell culture dishes and grown in DMEM containing 5% FBS. Cells were grown to 75% confluence, after which serum containing DMEM medium was replaced with FBS free DMEM. Cells were grown for 48 hrs under serum deprived conditions.

[4] = MO3-13 cells treated with Cpz (50 μM) plus compound (5 μM)
[5] = MO3-13 cells treated with compound alone (5 μM)

SMILES | protection of human oligodendrocytes (MO3-13) against the toxicity of Cpz (MO3-13 cells [1]) | MBP bound by anti-MBP [2, 4] | MBP bound by anti-MBP [2, 5] | anti-MBP antibody binding as compared with non-treated (DMSO) cells ([2]; MO3-13 cells treated with Cpz (50 μM)) | Cpz toxicity to MO3-13 cells (MO3-13 cells [3])
O=c1cc(-c2ccccc2)cc(-c2ccccc2)o1 [A3, 4,6-diphenyl-2H-pyran-2-one] | protection | significantly higher | significantly higher | – | –
O=C(NN=C1CCCCC1)C(=O)NN=C1CCCCC1 [Cpz, cuprizone, reference compound] | – | – | – | reduced | toxic
O=c1cc(-c2ccccc2)cc(C2CCCCC2)o1 [compound A2, 6-cyclohexyl-4-phenyl-2H-pyran-2-one] | protection | significantly higher | significantly higher | – | –
